Columns and labels:
[1] = target: E3 ubiquitin-protein ligase CBL-B (Homo sapiens, UniProt Q13191); assay: Inhibition of N-terminal Avi-tagged human CBL-B (36 to 427 residues) incubated with 60 nM Src kinase for 1.5 hrs followed by incubation with fluorescently labeled UbcH5B-Ub for 1 hr and measured by TR-FRET assay; assay type: single protein
[2] = Induction of anti-CD3/CD28 antibodies-stimulated human T cell activation at 1 uM assessed fold increase in IL-2 secretion measured by ELISA assay; assay type: functional, T cell line
[3] = Induction of anti-CD3/CD28 antibodies-stimulated human T cell activation at 0.3 uM assessed fold increase in IL-2 secretion measured by ELISA assay; assay type: functional, T cell line
[4] = Induction of anti-CD3 antibodies-stimulated human T cell activation at 1 uM assessed fold increase in IL-2 secretion measured by ELISA assay; assay type: functional, T cell line; also: reference of the scale not given here
[5] = Induction of anti-CD3/CD28 antibodies-stimulated human T cell activation at 1 uM assessed fold increase in CD25 expression measured by ELISA assay; assay type: functional, T cell line
[6] = Induction of anti-CD3/CD28 antibodies-stimulated human T cell activation at 0.3 uM assessed fold increase in CD25 expression measured by ELISA assay; assay type: functional, T cell line
[7] = Induction of anti-CD3 antibodies-stimulated human T cell activation at 1 uM assessed fold increase in CD25 expression measured by ELISA assay; assay type: functional, T cell line; also: reference of the scale not given here

Chain of E3 ubiquitin-protein ligase CBL-B (Q13191 whole entry, the tested form may be a part): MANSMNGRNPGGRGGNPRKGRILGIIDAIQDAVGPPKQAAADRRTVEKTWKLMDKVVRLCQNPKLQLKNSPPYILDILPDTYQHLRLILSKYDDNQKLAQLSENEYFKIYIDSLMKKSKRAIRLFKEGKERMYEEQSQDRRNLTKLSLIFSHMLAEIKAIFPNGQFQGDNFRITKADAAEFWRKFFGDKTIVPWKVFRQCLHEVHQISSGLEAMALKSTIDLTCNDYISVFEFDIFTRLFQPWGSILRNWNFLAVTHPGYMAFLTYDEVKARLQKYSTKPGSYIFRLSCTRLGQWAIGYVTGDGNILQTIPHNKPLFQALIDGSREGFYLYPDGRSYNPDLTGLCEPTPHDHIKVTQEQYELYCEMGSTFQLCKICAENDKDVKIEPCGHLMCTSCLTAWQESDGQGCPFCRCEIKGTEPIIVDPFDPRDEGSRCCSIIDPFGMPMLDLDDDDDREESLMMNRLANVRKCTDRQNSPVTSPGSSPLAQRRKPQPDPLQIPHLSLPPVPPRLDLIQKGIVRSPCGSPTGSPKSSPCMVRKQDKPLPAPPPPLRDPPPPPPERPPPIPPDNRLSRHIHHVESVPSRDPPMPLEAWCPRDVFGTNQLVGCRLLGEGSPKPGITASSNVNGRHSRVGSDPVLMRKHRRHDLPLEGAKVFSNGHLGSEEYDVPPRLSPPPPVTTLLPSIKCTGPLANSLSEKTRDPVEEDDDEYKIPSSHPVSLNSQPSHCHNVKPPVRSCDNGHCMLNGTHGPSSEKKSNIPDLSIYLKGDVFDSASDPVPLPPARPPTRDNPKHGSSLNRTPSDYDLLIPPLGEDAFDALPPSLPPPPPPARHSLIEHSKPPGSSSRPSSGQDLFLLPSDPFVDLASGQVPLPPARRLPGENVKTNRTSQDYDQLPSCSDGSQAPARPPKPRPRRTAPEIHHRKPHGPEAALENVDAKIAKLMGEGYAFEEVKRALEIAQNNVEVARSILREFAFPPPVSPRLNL

Compound	IC50 [1] [nM]	fold change (FC) [2]	fold change (FC) [3]	fold change (FC) [4]	fold change (FC) [5]	fold change (FC) [6]	fold change (FC) [7]	other results
C[C@@H]1CN(Cc2cc3c(c(C(F)(F)F)c2)CN(c2cccc(-c4c(-c5nncn5C)cnn4C)c2)C3=O)CCO1	< 100							
Cc1cc(C(=O)Nc2cccc(-c3c(-c4nncn4C)cnn3C)c2)nc(C2CC2)n1		1.01	1.01	0.101	1.01	1.01	0.601	
Cn1cnnc1CC1(c2cccc(NC(=O)c3nc(C4CC4)cs3)c2)COC1		1.01	<=1	<=0.05	1.01	1.01	<=0.6	
Cn1cnnc1CC1(c2cccc(NC(=O)c3ccnc4ccnn34)c2)COC1		2.51	1.01	<=0.05	1.01	1.01	0.601	
C[C@H](Cc1nncn1C)c1cc(N2Cc3c(cccc3C(F)(F)F)C2=O)nc(C2(C)CC2)c1		1.01	1.01	0.051	1.01	1.01	<=0.6	
Cn1cnnc1-c1cnn(C)c1-c1cccc(N2Cc3c(cccc3C(F)(F)F)C2=O)c1		1.01	1.01	0.051	1.01	1.01	0.601	
Cc1cc(C(=O)Nc2cccc([C@]3(Cc4nncn4C)CCOC3)c2)nc(C2CC2)n1 (single isomer, unassigned)		2.51	1.01	0.051	1.01	1.01	0.601	
C[C@H](Cc1nncn1C)c1cc(C2CCOCC2)nc(N2Cc3c(cccc3C(F)(F)F)C2=O)c1		1.01	1.01	<=0.05	1.01	1.01	<=0.6	
Cn1cnnc1OC1(c2cccc(N3Cc4c(cc(CN5CCC(F)CC5)cc4C(F)(F)F)C3=O)c2)COC1		2.51	1.01	<=0.05	1.31	1.01	0.601	
C[C@H](Cc1nncn1C)c1cc(-c2cn[nH]c2)nc(N2Cc3c(cccc3C(F)(F)F)C2=O)c1		<=1	<=1	0.051	<=1	<=1	<=0.6	
Cn1cnnc1CC1(c2cccc(N3Cc4c(cc(C5=CN6CCC5CC6)cc4C(F)(F)F)C3=O)c2)COC1		2.51	1.01	<=0.05	1.01	1.01	0.601	
Cc1cc(C(=O)Nc2cccc(C3(Cc4nncn4C)COC3)c2)n2nccc2n1		1.01	1.01	<=0.05	1.01	1.01	0.601	
Cn1cnnc1[C@H](F)C1(c2cccc(N3Cc4c(cc(CN5C6CCCC5CC6)cc4C(F)(F)F)C3=O)c2)COC1 (stereo in doubt; 675b)								fold change (FC) ([5]; 1 µM): 1.31; fold change (FC) ([6]; 0.3 µM): 1.31
Cn1cnnc1CC1(c2cccc(NC(=O)c3csc(C4CC4)n3)c2)COC1		1.01	1.01	0.051	1.01	1.01	0.601	
Cc1cc(C(=O)Nc2cccc(C3(Cc4nncn4C)COC3)c2)n2nc(C(F)(F)F)cc2n1		1.01	1.01	<=0.05	1.01	1.01	0.601	
CN(c1cc2c(c(C(F)(F)F)c1)CN(c1cccc([C@@](C)(F)C(F)(F)c3nncn3C)c1)C2=O)[C@@H]1CNC[C@@H]1F		2.51	1.01	0.101	1.01	1.01	0.601	
Cn1cnnc1CC1(c2cccc(N3Cc4c(ccc(F)c4C4CC4)C3=O)c2)COC1		1.01	1.01	0.051	1.01	1.01	0.601	
Cn1cnnc1[C@@H](F)C1(c2cccc(N3Cc4c(cc(CN5C6CCCC5CC6)cc4C(F)(F)F)C3=O)c2)COC1 (stereo in doubt; 675a)								fold change (FC) ([4]; 1 µM): 0.101; fold change (FC) ([5]; 1 µM): 1.31; fold change (FC) ([6]; 0.3 µM): 1.01; fold change (FC) ([7]; 1 µM): >=1.001
Cn1cnnc1CC1(c2cccc(N3Cc4c(cc(C(F)(F)C(=O)O)cc4C(F)(F)F)C3=O)c2)COC1		1.01	1.01	<=0.05	1.01	1.01	0.601	
C[C@H](Cc1nncn1C)c1cc(-c2cncs2)nc(N2Cc3c(cccc3C(F)(F)F)C2=O)c1		1.01	1.01	0.051	1.01	1.01	<=0.6	
CN(c1cc2c(c(C(F)(F)F)c1)CN(c1cccc([C@@](C)(F)C(F)(F)c3nncn3C)c1)C2=O)[C@H]1CNC[C@H]1F		2.51	1.01	0.151	1.31	1.01	0.801	
Cc1cnn2c(C(=O)Nc3cccc(C4(Cc5nncn5C)COC4)c3)cc(C(F)(F)F)nc12		1.01	<=1	<=0.05	1.01	1.01	0.601	
Cn1cnnc1CC1(c2cccc(NC(=O)c3nc(C(F)(F)F)cs3)c2)COC1		2.51	1.01	<=0.05	1.01	1.01	0.601	

Second part, led by results:

IC50 [1] [nM]	Compound	fold change (FC) [2]	fold change (FC) [3]	fold change (FC) [4]	fold change (FC) [5]	fold change (FC) [6]	fold change (FC) [7]	other results
< 100	Cn1cnnc1CC1(c2cccc(N3Cc4c(cc(CN5Cc6cccc(Cl)c6C5)cc4C(F)(F)F)C3=O)c2)COC1							
< 100	Cn1cnnc1CC1(c2cccc(N3Cc4c(cc(CN5CCO[C@H](CO)C5)cc4C(F)(F)F)C3=O)c2)COC1							
< 100	C[C@@H]1CN(Cc2cc3c(c(C(F)(F)F)c2)CN(c2cccc(C4(Cc5nncn5C)COC4)c2)C3=O)C[C@H](C)O1							
< 100	Cn1cnnc1CC1(c2cccc(N3Cc4c(cc(CN5CCc6ccncc6C5)cc4C(F)(F)F)C3=O)c2)COC1							
< 100	C[C@H]1CCN(Cc2cc3c(c(C(F)(F)F)c2)CN(c2cccc(C4(Cc5nncn5C)COC4)c2)C3=O)C[C@H]1F							
< 100	Cn1cnnc1CC1(c2cccc(N3Cc4c(cc(CN5CC[C@@H]6OCC[C@@H]6C5)cc4C(F)(F)F)C3=O)c2)COC1 (relative stereo)							
< 100	Cn1cnnc1CC1(c2cccc(N3Cc4c(cc(CN5CCOC(C)(C)C5)cc4C(F)(F)F)C3=O)c2)COC1							
< 100	Cn1cnnc1CC1(c2cccc(N3Cc4c(cc(CN5CCc6cc(C#N)ccc6C5)cc4C(F)(F)F)C3=O)c2)COC1							
< 100	CC(c1cc2c(c(C(F)(F)F)c1)CN(c1cccc(C3(C(F)(F)c4nncn4C)COC3)c1)C2=O)N1CC[C@H](F)C1 (stereo not given in full)							
> 10000	Cc1nnnn1CC(C)c1cccc(NC(=O)c2cccc(C(F)(F)F)n2)c1 (stereo not given)							
< 100	Cn1cnnc1CC1(c2cccc(N3Cc4c(cc(CN5CC[C@H](F)[C@@H](F)C5)cc4C(F)(F)F)C3=O)c2)COC1							
< 100	Cn1cnnc1CC1(c2cccc(N3Cc4c(cc(CC5CNCCC5=O)cc4C(F)(F)F)C3=O)c2)COC1 (stereo not given)							
< 100	Cn1cnnc1CC1(c2cccc(N3Cc4c(cc(CN5CC[C@@H]6NCCO[C@@H]6C5)cc4C(F)(F)F)C3=O)c2)COC1 (relative stereo)							
< 100	C[C@@H]1CN(Cc2cc3c(c(C(F)(F)F)c2)CN(c2cccc(-c4c(-c5nncn5C)cnn4C)c2)C3=O)C[C@H](C)O1							
< 100	Cn1cnnc1CC1(c2cccc(N3Cc4c(cc(CN5Cc6ccc(Cl)cc6C5)cc4C(F)(F)F)C3=O)c2)COC1							
< 100	Cn1cnnc1CC1(c2cccc(N3Cc4c(cc(CN5CCOC(CCO)C5)cc4C(F)(F)F)C3=O)c2)COC1 (stereo not given)							
< 100	CN(c1cc2c(c(C(F)(F)F)c1)CN(c1cccc([C@@](C)(F)C(F)(F)c3nncn3C)c1)C2=O)[C@@H]1CNC[C@H]1F							
< 100	Cn1cnnc1CC1(c2cccc(N3Cc4c(cc(CN5CC[C@@H](c6ccccc6)C5)cc4C(F)(F)F)C3=O)c2)COC1							
> 10000	C[C@H](Sc1nncn1C)c1cccc(NC(=O)c2cccc(N(C)C)c2)c1							
< 100	Cn1cnnc1CC1(c2cccc(N3Cc4c(cc(CN5CCOC(CC(F)(F)F)C5)cc4C(F)(F)F)C3=O)c2)COC1 (stereo not given)							
> 10000	C[C@@H](Sc1nncn1C)c1ccc(F)c(N2Cc3c(cccc3C(F)(F)F)C2=O)c1							
< 100	CC1=C(c2cc3c(c(C(F)(F)F)c2)CN(c2cccc(C4(Cc5nncn5C)COC4)c2)C3=O)CCO1							
< 100	COc1ccc2c(c1)CN(Cc1cc3c(c(C(F)(F)F)c1)CN(c1cccc(C4(Cc5nncn5C)COC4)c1)C3=O)CC2							

Source: ChEMBL document CHEMBL5050844 (2019)
